Data from patent publication US11369565B2, “Amino-pyrimidine skeletal muscle modulators” (Cytokinetics, Inc., priority 2010, dated 2022).

Test system: rabbit skeletal myofibrils (approximately 90% fast fibers)
Assay: Activation of fast skeletal myofibrils (PUMA coupled-enzyme ATPase assay at pCa25)
Assay type: biochemical
Conditions: concentration at which the compound increased the enzymatic activity by 40%; calcium at pCa25; PM12 buffer pH 6.8
Outline: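 Detergent-washed rabbit psoas myofibrils tested at calcium giving 25% of maximal rate (pCa25). ATPase activity tracked by pyruvate kinase/lactate dehydrogenase coupling, NADH oxidation read as absorbance at 340 nm, in PM12 buffer (12 mM Pipes, 2 mM MgCl2, 1 mM DTT, pH 6.8).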

Mean AC1.4 | SMILES
B (B=1-10 uM) | Nc1ncc(-c2cnc(NC[C@]3(c4ncccc4F)C[C@H](F)C3)nc2)cn1 [[5-(2-aminopyrimidin-5-yl)]pyrimidin-2-yl]{[3-fluoro-1-(3-fluoro(2-pyridyl))cyclobutyl]methyl}amine]
C (C=10-20 uM) | Cc1nc(NC[C@]2(c3ncccc3F)C[C@H](F)C2)ncc1-c1cccc(CC(N)=O)c1 [2-{3-[2-({[3-fluoro-1-(3-fluoro(2-pyridyl))cyclobutyl]methyl}amino)-4-methylpyrimidin-5-yl]phenyl}acetamide]
D (D=>20 uM) | CC(C)(Nc1ncc(-c2nc(CNC(=O)CN)cs2)cn1)c1ncccc1F [2-amino-N-{[2-(2-{[1-(3-fluoro(2-pyridyl))-isopropyl]amino}pyrimidin-5-yl)(1,3-thiazol-4-yl)]methyl}acetamide]
D (D=>20 uM) | CC(=O)NCc1ccc(-c2cnc(NC(C)(C)c3ncccc3F)nc2)cc1 [N-{[4-(2-{[1-(3-fluoro(2-pyridyl))-isopropyl}amino}pyrimidin-5-yl)phenyl]methyl}acetamide]
D (D=>20 uM) | CC(C)(Nc1ncc(-c2ncc(CNC(=O)c3cnc[nH]3)s2)cn1)c1ncccc1F [N-{[2-(2-{[1-(3-fluoro(2-pyridyl))-isopropyl]amino}pyrimidin-5-yl)(1,3-thiazol-5-yl)]methyl}imidazol-5-ylcarboxamide]
D (D=>20 uM) | CCNC(=O)c1cnc(NCC2(c3ncccc3F)CCC2)nc1 [N-ethyl[2-({[(3-fluoro(2-pyridyl))cyclobutyl]methyl}amino)pyrimidin-5-yl] carboxamide]
B (B=1-10 uM) | CC(C)(Nc1ncc(-n2cc(CNC(=O)CN)cn2)cn1)c1ncccc1Cl [2-amino-N-{[1-(2-{[1-(3-chloro(2-pyridyl))-isopropyl]amino)pyrimidin-5-yl)pyrazol-4-yl]methyl]acetamide]
D (D=>20 uM) | Cn1nc(-c2cnc(NC(C)(C)c3ncccc3Cl)nc2)cc1C(N)=O [3-(2-{[1-(3-chloro(2-pyridyl))-isopropyl]amino}pyrimidin-5-yl)-1-methylpyrazole-5-carboxamide]
C (C=10-20 uM) | O=C(O)c1csc(-c2cnc(NCC3(c4ncccc4F)CCC3)nc2)n1 [2-[2-({[(3-fluoro-2-pyridyl)cyclobutyl]methyl}amino)pyrimidin-5-yl]-1,3-thiazole-4-carboxylic acid]
D (D=>20 uM) | CC(C)(Nc1ncc(-c2ncc(CN)s2)cn1)c1ncccc1F [{5-[5-(aminomethyl)(1,3-thiazol-2-yl)]pyrimidin-2-yl}[1-(3-fluoro(2-pyridyl))-isopropyl]amine]
B (B=1-10 uM) | CC(C)(Nc1ncc(-c2cc(C(N)=O)ccn2)cn1)c1ncccc1Cl [2-(2-{[1-(3-chloro(2-pyridyl))-isopropyl]amino}pyrimidin-5-yl)pyridine-4-carboxamide]
D (D=>20 uM) | O=C(O)CNC(=O)c1cnc(NCC2(c3ncccc3F)CCC2)nc1 [2-{[2-({[(3-fluoro-2-pyridyl)cyclobutyl]methyl}amino)pyrimidin-5-yl]carbonylamino} acetic acid]
C (C=10-20 uM) | N#Cc1cnc(-c2cnc(NCC3(c4ncccc4F)CCC3)nc2)s1 [2-[2-({[(3-fluoro-2-pyridyl)cyclobutyl]methyl}amino)pyrimidin-5-yl]-1,3-thiazole-5-carbonitrile]
B (B=1-10 uM) | CC(C)(Nc1ncc(-c2cncc(C(N)=O)c2)cn1)c1ncccc1Cl [5-(2-{[1-(3-chloro(2-pyridyl))-isopropyl]amino}pyrimidin-5-yl)pyridine-3-carboxamide]
D (D=>20 uM) | Cn1nccc1NC(=O)c1cnc(NCC2(c3ncccc3F)CCC2)nc1 [[2-({[(3-fluoro(2-pyridyl))cyclobutyl]methyl)amino)pyrimidin-5-yl]-N-(1-methylpyrazol-5-yl)carboxamide]
D (D=>20 uM) | Oc1ccc(-c2cnc(NC[C@]3(c4ncccc4F)C[C@H](F)C3)nc2)nn1 [6-[2-({[3-fluoro-1-(3-fluoro(2-pyridyl))cyclobutyl]methyl}amino)pyrimidin-5-yl]pyridazin-3-ol]
